Patent EP1266900A1, “Carbamates of rapamycin” (Wyeth, priority 1992, dated 1994)
Values joined by “and” are separate entries in the source; they are usually repeats but may differ in a detail not shown here. Identical values can stand only once. Counter-ions that a name gives are not always drawn. Like-named read-outs stand apart in the source and are kept apart here.

Assays:
[1] = tested on: cells from the thymus of normal BALB/c mice; experiment: comitogen-induced thymocyte proliferation procedure (LAF); format: cell-based; conditions: for LAF (ratio): ratio compared with rapamycin, greater than 1 = inhibited thymocyte proliferation to a greater extent than rapamycin; for IC50: thymocytes cultured for 72 hours with PHA and IL-1, tritiated thymidine incorporation, read-out: LAF IC50
Description: (§1) Immunosuppressive activity for representative compounds of this invention was evaluated in an in vitro standard pharmacological test procedure to measure lymphocyte proliferation (LAF) and in an in vivo standard pharmacological test procedure which evaluated the survival time of a pinch skin graft.
The comitogen-induced thymocyte proliferation procedure (LAF) was used as an in vitro measure of the immunosuppressive effects of representative compounds. Briefly, cells from the thymus of normal BALB/c mice are cultured for 72 hours with PHA and IL-1 and pulsed with tritiated thymidine during the last six hours. Cells are cultured with and without various concentrations of rapamycin, cyclosporin A, or test compound. Cells are harvested and incorporated radioactivity is determined. Inhibition of lymphoproliferation is assessed as percent change in counts per minute from non-drug treated controls. For each compound evaluated, rapamycin was also evaluated for the purpose of comparison. An IC50 was obtained for each test compound as well as for rapamycin. […] A positive ratio indicates immunosuppressive activity. […] Calculation of the ratio is shown below. (()^3 H-control thymus cells -)/(()^3 H-control thymus cells -)(()^3 H-rapamycin-treated thymus cells)/(()^3 H-test compound-treated cells) [formula]

pinch skin graft = pinch skin graft survival time, in vivo; set-up: species or system male C3H(H-2K) recipients; conditions: dose of 4 mg/kg, intraperitoneally or orally, untreated grafts usually rejected within 6-7 days
Description: as §1
Representative compounds of this invention were also evaluated in an in vivo test procedure designed to determine the survival time of pinch skin graft from male BAB/c donors transplanted to male C3H(H-2K) recipients. The method is adapted from Billingham R.E. and Medawar P.B., J. Exp. Biol. 28:385-402, (1951). Briefly, a pinch skin graft from the donor was grafted on the dorsum of the recipient as a allograft, and an isograft was used as control in the same region. The recipients were treated with either varying concentrations of test compounds intraperitoneally or orally. Rapamycin was used as a test control. Untreated recipients serve as rejection control. The graft was monitored daily and observations were recorded until the graft became dry and formed a blackened scab. This was considered as the rejection day. The mean graft survival time (number of days ± S.D.) of the drug treatment group was compared with the control group. […] Results are expressed as the mean survival time in days. Untreated (control) pinch skin grafts are usually rejected within 6-7 days. The results shown in Table 1 are based on a dose of 4 mg/kg of test compound. A survival time of 12.0 ± 1.7 days was obtained for rapamycin at 4 mg/kg.

| Molecule | LAF (ratio) [1] | IC50 ([1]; Mus musculus, Thymocyte, 72 h) [nM] | also measured |
| --- | --- | --- | --- |
| Rapamycin 42-ester with 2-(2-aminoethoxy)ethyl carbamic acid [Example 21] | 0.6 | – | IC50 [1]: 6 nM; Skin Graft (days ± SD), mean survival time (pinch skin graft): 10.4 ± 0.5 days |
| CO[C@H]1C[C@@H]2CC[C@@H](C)[C@@](O)(O2)C(=O)C(=O)N2CCCC[C@H]2C(=O)O[C@H]([C@H](C)C[C@@H]2CC[C@@H](OC(=O)NCCCN(CCO)CCO)[C@H](OC)C2)CC(=O)[C@H](C)/C=C(\C)[C@@H](O)[C@@H](OC)C(=O)[C@H](C)C[C@H](C)/C=C/C=C/C=C/1C [Example 24, Rapamycin 42-ester with [3-[bis(2-hydroxyethyl)amino]propyl]carbamic acid] | 0.1 | 40 | – |
| CO[C@H]1C[C@@H]2CC[C@@H](C)[C@@](O)(O2)C(=O)C(=O)N2CCCC[C@H]2C(=O)O[C@H]([C@H](C)C[C@@H]2CC[C@@H](OC(=O)NCCN(C)C)[C@H](OC)C2)CC(=O)[C@H](C)/C=C(\C)[C@@H](O)[C@@H](OC)C(=O)[C@H](C)C[C@H](C)/C=C/C=C/C=C/1C [Example 3, Rapamycin 42-ester with 2-(dimethylamino)ethyl carbamic acid] | 0.34 | 6.5 | – |
| CO[C@H]1C[C@@H]2CC[C@@H](C)[C@@](O)(O2)C(=O)C(=O)N2CCCC[C@H]2C(=O)O[C@H]([C@H](C)C[C@@H]2CC[C@@H](OC(=O)NCCc3ccccn3)[C@H](OC)C2)CC(=O)[C@H](C)/C=C(\C)[C@@H](O)[C@@H](OC)C(=O)[C@H](C)C[C@H](C)/C=C/C=C/C=C/1C [Example 6, Rapamycin 42-ester with 2-(pyridin-2-yl)-ethyl carbamic acid] | 5.1 | – | IC50 [1]: 0.8 nM; Skin Graft (days ± SD), mean survival time (pinch skin graft; 4 mg/kg): 11.40 ± 0.6 days |
| CO[C@H]1C[C@@H]2CC[C@@H](C)[C@@](O)(O2)C(=O)C(=O)N2CCCC[C@H]2C(=O)O[C@H]([C@H](C)C[C@@H]2CC[C@@H](OC(=O)NCc3ccccn3)[C@H](OC)C2)CC(=O)[C@H](C)/C=C(\C)[C@@H](O)[C@@H](OC)C(=O)[C@H](C)C[C@H](C)/C=C/C=C/C=C/1C [Example 10, Rapamycin 42-ester with 2-pyridinylmethyl carbamic acid] | 3.8 | 0.1 | Skin Graft (days ± SD), mean survival time (pinch skin graft): 10.17 ± 1.0 days |
| Rapamycin 42-ester with 2-pyridinylmethyl carbamic acid hydrochloride salt [Example 11] | 5.0 | – | IC50 [1]: 0.7 nM; Skin Graft (days ± SD), mean survival time (pinch skin graft): 11.40 ± 0.9 days |
| CO[C@H]1C[C@@H]2CC[C@@H](C)[C@@](O)(O2)C(=O)C(=O)N2CCCC[C@H]2C(=O)O[C@H]([C@H](C)C[C@@H]2CC[C@@H](OC(=O)N3CCN(CCCO)CC3)[C@H](OC)C2)CC(=O)[C@H](C)/C=C(\C)[C@@H](O)[C@@H](OC)C(=O)[C@H](C)C[C@H](C)/C=C/C=C/C=C/1C [Example 23, Rapamycin 42-ester with 4-(3-hydroxypropyl)piperazine-1-carboxylic acid] | 1.4 | 3.4 | – |
| CO[C@H]1C[C@@H]2CC[C@@H](C)[C@@](O)(O2)C(=O)C(=O)N2CCCC[C@H]2C(=O)O[C@H]([C@H](C)C[C@@H]2CC[C@@H](OC(=O)N3CCN(C)CC3)[C@H](OC)C2)CC(=O)[C@H](C)/C=C(\C)[C@@H](O)[C@@H](OC)C(=O)[C@H](C)C[C@H](C)/C=C/C=C/C=C/1C [Example 27, Rapamycin 42-ester with 4-methylpiperazine-1-carboxylic acid] | 1.2 | 1.2 | – |
| CO[C@H]1C[C@@H]2CC[C@@H](C)[C@@](O)(O2)C(=O)C(=O)N2CCCC[C@H]2C(=O)O[C@H]([C@H](C)C[C@@H]2CC[C@@H](OC(=O)NCc3cccnc3)[C@H](OC)C2)CC(=O)[C@H](C)/C=C(\C)[C@@H](O)[C@@H](OC)C(=O)[C@H](C)C[C@H](C)/C=C/C=C/C=C/1C [Example 13, Rapamycin 42-ester with 3-pyridinylmethyl carbamic acid hydrochloride salt] | – | – | IC50 ([1]; hydrochloride salt): 0.9 nM; Skin Graft (days ± SD), mean survival time (pinch skin graft; hydrochloride salt, 4 mg/kg): 9.50 ± 0.6 days |
| CO[C@H]1C[C@@H]2CC[C@@H](C)[C@@](O)(O2)C(=O)C(=O)N2CCCC[C@H]2C(=O)O[C@H]([C@H](C)C[C@@H]2CC[C@@H](OC(=O)NCCO)[C@H](OC)C2)CC(=O)[C@H](C)/C=C(\C)[C@@H](O)[C@@H](OC)C(=O)[C@H](C)C[C@H](C)/C=C/C=C/C=C/1C [Example 2, Rapamycin 42-ester with 2-hydroxyethyl carbamic acid] | 1.22 and 1.09 | – | Skin Graft (days ± SD), mean survival time (pinch skin graft): 10.3 ± 0.8 days |
| CO[C@H]1C[C@@H]2CC[C@@H](C)[C@@](O)(O2)C(=O)C(=O)N2CCCC[C@H]2C(=O)O[C@H]([C@H](C)C[C@@H]2CC[C@@H](OC(=O)NCc3cccnc3)[C@H](OC)C2)CC(=O)[C@H](C)/C=C(\C)[C@@H](O)[C@@H](OC)C(=O)[C@H](C)C[C@H](C)/C=C/C=C/C=C/1C [Example 12, Rapamycin 42-ester with 3-pyridinylmethyl carbamic acid] | 3.8 | 1.1 | Skin Graft (days ± SD), mean survival time (pinch skin graft; 4 mg/kg): 9.80 ± 1.1 days |
| CO[C@H]1C[C@@H]2CC[C@@H](C)[C@@](O)(O2)C(=O)C(=O)N2CCCC[C@H]2C(=O)O[C@H]([C@H](C)C[C@@H]2CC[C@@H](OC(=O)NO)[C@H](OC)C2)CC(=O)[C@H](C)/C=C(\C)[C@@H](O)[C@@H](OC)C(=O)[C@H](C)C[C@H](C)/C=C/C=C/C=C/1C [Example 5, Rapamycin 42-ester with hydroxycarbamic acid] | 1.19 | 2.1 | – |
| CO[C@H]1C[C@@H]2CC[C@@H](C)[C@@](O)(O2)C(=O)C(=O)N2CCCC[C@H]2C(=O)O[C@H]([C@H](C)C[C@@H]2CC[C@@H](OC(=O)NCCc3ccccn3)[C@H](OC)C2)CC(=O)[C@H](C)/C=C(\C)[C@@H](O)[C@@H](OC)C(=O)[C@H](C)C[C@H](C)/C=C/C=C/C=C/1C [Example 7, Rapamycin 42-ester with 2-(pyridin-2-yl)-ethyl carbamic acid hydrochloride salt] | – | – | LAF (ratio) ([1]; hydrochloride salt): 2.3; IC50 ([1]; hydrochloride salt): 1.2 nM; Skin Graft (days ± SD), mean survival time (pinch skin graft; hydrochloride salt, 4 mg/kg): 10.33 ± 0.5 days |
| CO[C@H]1C[C@@H]2CC[C@@H](C)[C@@](O)(O2)C(=O)C(=O)N2CCCC[C@H]2C(=O)O[C@H]([C@H](C)C[C@@H]2CC[C@@H](OC(=O)N3CCNCC3)[C@H](OC)C2)CC(=O)[C@H](C)/C=C(\C)[C@@H](O)[C@@H](OC)C(=O)[C@H](C)C[C@H](C)/C=C/C=C/C=C/1C [Example 28, Rapamycin 42-ester with piperazine-1-carboxylic acid] | 1.1 | 4.2 | – |
| CO[C@H]1C[C@@H]2CC[C@@H](C)[C@@](O)(O2)C(=O)C(=O)N2CCCC[C@H]2C(=O)O[C@H]([C@H](C)C[C@@H]2CC[C@@H](OC(=O)NCCc3ccccn3)[C@H](OC)C2)CC(=O)[C@H](C)/C=C(\C)[C@@H](O)[C@@H](OC)C(=O)[C@H](C)C[C@H](C)/C=C/C=C/C=C/1C [Example 8, Rapamycin 42-ester with 2-(pyridin-2-yl)ethylcarbamic acid methanesulfonate salt] | – | – | LAF (ratio) ([1]; methanesulfonate salt): 4.4; IC50 ([1]; methanesulfonate salt): 0.2 nM |
| CO[C@H]1C[C@@H]2CC[C@@H](C)[C@@](O)(O2)C(=O)C(=O)N2CCCC[C@H]2C(=O)O[C@H]([C@H](C)C[C@@H]2CC[C@@H](OC(=O)N3CCOCC3)[C@H](OC)C2)CC(=O)[C@H](C)/C=C(\C)[C@@H](O)[C@@H](OC)C(=O)[C@H](C)C[C@H](C)/C=C/C=C/C=C/1C [Example 26, Rapamycin 42-ester with morpholine-4-carboxylic acid] | 6.2 | 0.2 | – |
